Measurements reported in patent US11976075B2, “Inhibitors of the MYST family of lysine acetyl transferases” (Isosterix, Inc., priority 2022, dated 2024).
Like-named read-outs stand apart in the source and are kept apart here.

Target: T1, Recombinant KAT6A/MOZ (488-778) protein (Homo sapiens, UniProt Q92794)
T1 construct: Recombinant KAT6A/MOZ (488-778) protein (Active motif, Catalog #81223); purchased Active Motif 81223
Assay: Kat6a AlphaLISA Inhibition Screening Assay
Format: biochemical
Method: The Kat6a inhibitory activity of test compounds was determined using an Alpha Screen-based detection method. The assay reactions were conducted in a volume of 10 μL in Alpha Plate, White 384 well plate (cat #6008280, Perkin Elmer). The enzymatic reactions were performed in assay buffer pH 8.0 (50 mM Tris-HCl, 0.1 mM EDTA, 0.01% Tween-20, 1 mM Dithiothreitol, 0.1% BSA (fatty acid free) and 330 nM TSA (Trichostatin A)). 10 μL reaction volume consisting of 25 nM of Recombinant KAT6A/MOZ (488-778) protein (Active motif, Catalog #81223), 400 nM Acetyl coenzyme A (Catalog #A2056, Sigma), 200 nM of Histone H3 peptide [(amino acids 1-21), biotin-labeled (BPS Biosciences, Catalog #52011,)] and a 10-point dose response curve for test/tool compounds were prepared. Enzyme and compounds solution were pre-incubated in assay plate for 60 or 10 min at room temperature then substrate and Acetyl coenzyme A solution were added to the plate. After addition, the plate was sealed with adhesive seals and incubated for 120 minutes at room temperature.
After 120 minutes of incubation, 5 μL (10 μg/mL) of AlphaLISA anti-acetyl-Lysine acceptor beads (Perkin Elmer, Catalog #AL143C) were added to the plate and it was incubated for 60 minutes at room temperature. Then 10 μL (10 μg/mL) of Alpha Streptavidin donor beads (Perkin Elmer, Catalog #6760002S) were added to the plate which was further incubated for 60 minutes at room temperature. After incubation, the alpha signal was recorded by using Perkin Elmer Envision multi-mode reader.
NA means the compound was not active at the concentration tested. […] NT means not tested.

[1] = 60′ pre-incubation, Table 2, read-out: Kat6A biochemical assay: IC50
[2] = 60′ pre-incubation, Table 3, read-out: Kat6A Biochemical assay: IC50
[3] = 10′ pre-incubation, Table 2, read-out: Kat6A biochemical assay: IC50

T1 sequence (Q92794 488-778): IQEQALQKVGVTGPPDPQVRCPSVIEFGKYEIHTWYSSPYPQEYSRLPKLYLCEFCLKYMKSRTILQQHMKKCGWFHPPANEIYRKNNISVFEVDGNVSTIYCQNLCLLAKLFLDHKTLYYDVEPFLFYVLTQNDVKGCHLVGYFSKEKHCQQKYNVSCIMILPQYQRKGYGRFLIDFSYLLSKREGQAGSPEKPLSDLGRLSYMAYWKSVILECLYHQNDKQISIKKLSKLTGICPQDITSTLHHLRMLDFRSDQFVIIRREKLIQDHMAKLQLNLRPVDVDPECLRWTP

Structure (SMILES)	IC50 [1] [µM]	IC50 [2] [µM]	further results
C=CC(=O)NCc1ccnc(-c2cc(C)cc(C(=O)NNS(=O)(=O)c3c(OC)cccc3OC)c2)c1 [Synthetic Example 15, N-((2-(3-(2-((2,6-dimethoxyphenyl)sulfonyl)hydrazine-1-carbonyl)-5-methylphenyl)pyridin-4-yl)methyl)acrylamide]	≤ 10		
C=CS(=O)(=O)NCc1ccn(Cc2cc(OC)c3c(NS(=O)(=O)CC4CCCCC4)noc3c2)n1 [Synthetic Example 24, N-((1-((3-((cyclohexylmethyl)sulfonamido)-4-methoxybenzo[d]isoxazol-6-yl)methyl)-1H-pyrazol-3-yl)methyl)ethenesulfonamide]	≤ 10		
C#CC(=O)N1CCN(c2cccc(-c3cc(OC)c4c(NS(=O)(=O)c5c(OC)cccc5OC)noc4n3)c2)CC1 [compound 113, 2,6-dimethoxy-N-(4-methoxy-6-(3-(4-propioloylpiperazin-1-yl)phenyl)isoxazolo[5,4-b]pyridin-3-yl)benzenesulfonamide]		≤ 10	
C#CC(=O)N1CCN(c2cccc(-c3cc(OC)c4c(NS(=O)(=O)N(C)C5CCCCC5)noc4c3)c2)CC1 [compound 112, 3-[[cyclohexyl(methyl)sulfamoyl]amino]-4-methoxy-6-[3-(4-prop-2-ynoylpiperazin-1-yl)phenyl]-1,2-benzoxazole]		≤ 10	
C#CC(=O)N1CCC(c2cccc(-c3cc(OC)c4c(NS(=O)(=O)c5c(OC)cccc5OC)noc4c3)c2)CC1 [compound 101, 2,6-dimethoxy-N-(4-methoxy-6-(3-(1-propioloylpiperidin-4-yl)phenyl)benzo[d]isoxazol-3-yl) benzenesulfonamide]		≤ 10	
C#CC(=O)NCc1ccnc(-c2cc(C)cc(C(=O)NNS(=O)(=O)c3c(OC)cccc3OC)c2)c1 [Synthetic Example 16, N-((2-(3-(2-((2,6-dimethoxyphenyl)sulfonyl)hydrazine-1-carbonyl)-5-methylphenyl)pyridin-4-yl)methyl)propiolamide]	≤ 10		
C#CC(=O)N1CCN(c2nc(-c3cc(OC)c4c(NS(=O)(=O)c5c(OC)cccc5OC)noc4c3)cs2)CC1 [compound 97, 2,6-dimethoxy-N-(4-methoxy-6-(2-(4-propioloylpiperazin-1-yl)thiazol-4-yl)benzo[d]isoxazol-3-yl)benzenesulfonamide]		≤ 10	
COc1cc(Cn2cc(C#N)cn2)cc2onc(NS(=O)(=O)CC3CCCCC3)c12 [compound 126, N-(6-((4-cyano-1H-pyrazol-1-yl)methyl)-4-methoxybenzo[d]isoxazol-3-yl)-1-cyclohexylmethanesulfonamide]			IC50 (10′ pre-incubation, Table 3, read-out: Kat6A Biochemical assay: IC50): ≤ 10 µM
COc1cc(Cn2ncc3c2CNC3)cc2onc(NS(=O)(=O)CC3CCCCC3)c12 [Synthetic Example 28A, 1-cyclohexyl-N-(6-((5,6-dihydropyrrolo[3,4-c]pyrazol-1(4H)-yl)methyl)-4-methoxybenzo[d]isoxazol-3-yl)methanesulfonamide]	≤ 10		
C=CC(=O)NCC(=O)NCc1ccc2cc(C(=O)NS(=O)(=O)c3ccccc3F)oc2c1 [Synthetic Example 39, 6-((2-acrylamidoacetamido)methyl)-N-((2-fluorophenyl)sulfonyl)benzofuran-2-carboxamide]			IC50 [3]: 20 to 50 µM
C=CS(=O)(=O)N1CCC(c2ccnc(-c3cc(C)cc(C(=O)NNS(=O)(=O)c4ccccc4F)c3)c2)CC1 [Synthetic Example 42, 2-fluoro-N′-(3-methyl-5-(4-(1-(vinylsulfonyl)piperidin-4-yl)pyridin-2-yl)benzoyl)benzenesulfonohydrazide]	≤ 10		
C=CC(=O)N1CCC(C(=O)NCc2ccc3cc(C(=O)NS(=O)(=O)c4ccccc4F)oc3c2)C1 (centres unmarked) [Synthetic Example 40, 1-acryloyl-N-((2-(((2-fluorophenyl)sulfonyl)carbamoyl)benzofuran-6-yl)methyl)pyrrolidine-3-carboxamide]			IC50 [3]: > 100 µM
C#CC(=O)NCc1ccnc(-c2cc(C)cc(C(=O)NNS(=O)(=O)c3cccc(C(=O)NC)c3)c2)c1 [Synthetic Example 55, N-methyl-3-[[[3-methyl-5-[4-[(prop-2-ynoylamino)methyl]-2-pyridyl]benzoyl]amino]sulfamoyl] benzamide]	≤ 10		
C#CC(=O)N1CCN(c2cccc(-c3cc4onc(NS(=O)(=O)c5c(OC)cccc5OC)c4cc3C)c2)CC1 [compound 120, 2,6-dimethoxy-N-(5-methyl-6-(3-(4-propioloylpiperazin-1-yl)phenyl)benzo[d]isoxazol-3-yl) benzenesulfonamide]		≤ 10	
COc1ccccc1S(=O)(=O)Nc1noc2cc(Cn3cc(CNS(=O)(=O)c4cc(F)c(F)c(F)c4)cn3)cc(OC)c12 [compound 80, 3,4,5-trifluoro-N-((1-((4-methoxy-3-((2-methoxyphenyl)sulfonamido)benzo[d]isozolol-6-yl)methyl)-1H-pyrazol-4-yl)methyl) benzenesulfonamide]		≤ 10	

Second part, led by results:

IC50 [1] [µM]	IC50 [2] [µM]	Structure (SMILES)	further results
	≤ 10	CCc1ccc(OC)c(S(=O)(=O)Nc2noc3cc(Cn4cc(CNS(C)(=O)=O)cn4)cc(OC)c23)c1 [compound 116]	
	≤ 10	COc1ccccc1S(=O)(=O)Nc1noc2cc(Cn3ncc4c3CN(S(=O)(=O)c3c(F)c(F)c(F)c(F)c3F)C4)cc(OC)c12 [compound 82]	
≤ 10		C=C(F)C(=O)NCc1ccn(Cc2cc(OC)c3c(NS(=O)(=O)CC4CCCCC4)noc3c2)n1 [Synthetic Example 23, N-((1-((3-((cyclohexylmethyl)sulfonamido)-4-methoxybenzo[d]isoxazol-6-yl)methyl)-1H-pyrazol-3-yl)methyl)-2-fluoroacrylamide]	
	≤ 10	C#CC(=O)N1CCN(c2ccnc(-c3cc(OC)c4c(NS(=O)(=O)c5c(OC)cccc5OC)noc4c3)c2)CC1 [compound 119, 2,6-dimethoxy-N-(4-methoxy-6-(4-(4-propioloylpiperazin-1-yl)pyridin-2-yl)benzo[d]isoxazol-3-yl)benzenesulfonamide]	
≤ 10		C=CC(=O)NC1CCN(Cc2cc(OC)c3c(NS(=O)(=O)c4ccccc4OC)noc3c2)CC1 [Synthetic Example 49, N-(1-((4-methoxy-3-((2-methoxyphenyl)sulfonamido)benzo[d]isoxazol-6-yl)methyl)piperidin-4-yl)acrylamide]	
	> 10	C#CC(=O)NCc1cnn(Cc2cc(OC)c3c(NS(=O)(=O)c4cc(C(=O)O)ccc4OC)noc3c2)c1 [compound 86, 4-methoxy-3-(N-(4-methoxy-6-((4-(propiolamidomethyl)-1H-pyrazol-1-yl)methyl)benzo[d]isoxazol-3-yl)sulfamoyl)benzoic acid]	
	≤ 10	CCS(=O)(=O)NCc1cnn(Cc2cc(OC)c3c(NS(=O)(=O)c4c(OC)cccc4OC)noc3c2)c1 [compound 108]	
≤ 10		COc1ccccc1S(=O)(=O)Nc1noc2cc(Cn3cc(CNC(=O)C#CCO)cn3)cc(OC)c12 [Synthetic Example 53, 4-hydroxy-N-((1-((4-methoxy-3-((2-methoxyphenyl)sulfonamido)benzo[d]isoxazol-6-yl)methyl)-1H-pyrazol-4-yl)methyl) but-2-ynamide]	
≤ 10		C#CC(=O)NCc1cnn(Cc2cc(OC)c3c(NS(=O)(=O)c4cc(CC)ccc4OC)noc3c2)c1 [compound 69, N-((1-((3-((5-ethyl-2-methoxyphenyl)sulfonamido)-4-methoxybenzo[d]isoxazol-6-yl)methyl)-1H-pyrazol-4-yl)methyl) propiolamide]	
	≤ 10	C#CC(=O)N1CCN(c2cnc(-c3cc(OC)c4c(NS(=O)(=O)c5c(OC)cccc5OC)noc4c3)s2)CC1 [compound 102, 2,6-dimethoxy-N-(4-methoxy-6-(5-(4-propioloylpiperazin-1-yl)thiazol-2-yl)benzo[d]isoxazol-3-yl)benzenesulfonamide]	
≤ 10		C#CC(=O)NCc1cnn(Cc2cc(OC)c3c(NS(=O)(=O)c4cccc(OC)c4)noc3c2)c1 [Synthetic Example 35, N-((1-((4-methoxy-3-((3-methoxyphenyl)sulfonamido)benzo[d]isoxazol-6-yl)methyl)-1H-pyrazol-4-yl)methyl)propiolamide]	
> 10		COc1ccccc1S(=O)(=O)Nc1noc2cc(CN3CCC(C(=O)NCC#N)C3)cc(OC)c12 (centres unmarked) [Synthetic Example 67, N-(cyanomethyl)-1-((4-methoxy-3-((2-methoxyphenyl)sulfonamido)benzo[d]isoxazol-6-yl)methyl) pyrrolidine-3-carboxamide]	
≤ 10		C=CC(=O)NCc1ccn(Cc2cc(OC)c3c(NS(=O)(=O)c4ccccc4F)noc3c2)n1 [Synthetic Example 18, N-((1-((3-((2-fluorophenyl)sulfonamido)-4-methoxybenzo[d]isoxazol-6-yl)methyl)-1H-pyrazol-3-yl)methyl)acrylamide]	
≤ 10		C=CS(=O)(=O)N1C[C@H]2CN(Cc3cc(OC)c4c(NS(=O)(=O)c5ccccc5OC)noc4c3)C[C@H]2C1 [Synthetic Example 59]	
